Measurements published in US8012959B2, “Diaminopyrimidinecarboxamide derivative” (Astellas Pharma Inc., priority 2002, dated 2011).
Counter-ions that a name gives are not always drawn.

How the values were obtained:
STAT 6 [1] = target: T1, STAT 6 (Mus musculus, UniProt P52633); assay: STAT 6-dependent reporter activity (IL-4-stimulated CI/FW4 luciferase reporter cell); assay type: cell-based, human; settings: for inhibition at 0.1 µM / Inh (%) 0.1 μM: inhibition ratio at 0.1 μM compound; for inhibition at 0.1 µM / inhibition at 1 µM / Inh (%) 0.1 μM / Inh (%) 1 μM: IL-4-stimulated CI/FW4 cell, luciferase; for inhibition at 1 µM / Inh (%) 1 μM: inhibition ratio at 1 μM compound; for inhibition of STAT 6-dependent reporter activity (activity similar to the compounds of Table 26): CI/FW4 cell, 10 ng/ml human IL-4, luciferase
T1 construct: An STAT 6 reporter cell CI/FW4 was constructed by the above operation; endogenous in cells; host or cells: CI/FW4 (FW4 cell stably carrying the pGL2-CI/bs luciferase reporter)
T1 sequence (P52633 1-837): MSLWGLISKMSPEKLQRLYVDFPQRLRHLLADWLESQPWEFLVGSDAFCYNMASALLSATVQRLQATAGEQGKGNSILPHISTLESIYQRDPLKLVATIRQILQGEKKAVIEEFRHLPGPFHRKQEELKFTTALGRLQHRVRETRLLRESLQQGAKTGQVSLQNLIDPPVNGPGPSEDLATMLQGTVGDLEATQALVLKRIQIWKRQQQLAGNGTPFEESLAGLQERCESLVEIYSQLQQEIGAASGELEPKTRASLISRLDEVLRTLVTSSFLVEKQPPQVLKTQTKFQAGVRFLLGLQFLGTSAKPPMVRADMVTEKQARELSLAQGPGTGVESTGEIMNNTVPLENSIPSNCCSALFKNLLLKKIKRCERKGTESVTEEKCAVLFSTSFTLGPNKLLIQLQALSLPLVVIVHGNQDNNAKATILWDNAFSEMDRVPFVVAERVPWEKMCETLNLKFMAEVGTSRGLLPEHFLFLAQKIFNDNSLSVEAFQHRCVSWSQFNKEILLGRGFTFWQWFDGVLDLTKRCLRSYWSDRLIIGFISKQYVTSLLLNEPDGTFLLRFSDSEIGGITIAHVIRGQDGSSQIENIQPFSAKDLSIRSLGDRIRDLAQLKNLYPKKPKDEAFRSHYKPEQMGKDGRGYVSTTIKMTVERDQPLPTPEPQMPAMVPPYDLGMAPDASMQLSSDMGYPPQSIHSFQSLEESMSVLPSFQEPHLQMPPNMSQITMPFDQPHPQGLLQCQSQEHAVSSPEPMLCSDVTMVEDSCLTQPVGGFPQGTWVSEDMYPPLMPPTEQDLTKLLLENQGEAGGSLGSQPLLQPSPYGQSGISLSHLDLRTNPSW
Description: Measurement of STAT 6-Dependent Reporter Activity 1) Construction of STAT 6 Reactive Reporter Plasmid A STAT 6 reporter plasmid pGL2-CI was prepared by the following method. […] Also, […] sequence DNA molecules (SEQ ID NOs:3 and 4) contained in the adenovirus major late promoter were annealed and inserted into BglII and HindIII sites of the same vector. Thereafter, pGL2-CI/bs was constructed by inserting the blasticidin resistance gene of pUCSV-BD (Funakoshi) into BamHI site of the constructed pGL2-CI. 2) Construction of STAT 6 Reporter Cell Gene transfer of […] into a human IL-4 reactive cell FW4 cell (Mol. Cell. Biol., 14: 5433-5440) was carried out by the electroporation method (320 V, 960 μF/0.4 cm cuvette (Nippon Bio-Rad Laboratories)), and 6 μg/ml of blasticidin (Funakoshi) was added 40 hours thereafter to select a resistant cell. Confirmation of constant transfer of the reporter plasmid was carried out by detecting luciferase induce by IL-4 stimulation. An STAT 6 reporter cell CI/FW4 was constructed by the above operation. 3) STAT Reporter Assay Using CI/FW4 Cell Stimulation of the CI/FW4 cell (1×10^4 cells/0.1 ml) with 10 ng/ml of human IL-4 (Genzyme Techne) was carried out using a white 96 well plate (Nunc). In the case of the evaluation of compounds, compound dilutions were added to the wells before inoculating the cells into the 96 well plate. […] Thereafter, 50 μl of a luciferase substrate solution (10 mM Tris-HCl pH 7.8, 5 mM luciferin, 2 mM coenzyme A, 2 mM ATP, 0.5 mM MgCl2 and 2 mM Mg(OH)2) was added, followed by stirring for 1 minute. Then, the luciferase activity was measured using ML3000 luminometer (Dynatech Laboratories, Inc). Inhibitory activities of tested compounds were evaluated in which the luminescence intensity (relative light unit: […] The results are shown in the following Table 26.

STAT 6 [2] = target: T2, STAT 6 (Homo sapiens, UniProt P42226); assay: STAT 6 tyrosine phosphorylation in IL-4-stimulated H292 cell (western blotting); assay type: cell-based; settings: 1 μM compound, 10 ng/ml human IL-4, disappearance of the about 110 kDa band
T2 construct: host or cells: H292
T2 sequence (P42226 1-847): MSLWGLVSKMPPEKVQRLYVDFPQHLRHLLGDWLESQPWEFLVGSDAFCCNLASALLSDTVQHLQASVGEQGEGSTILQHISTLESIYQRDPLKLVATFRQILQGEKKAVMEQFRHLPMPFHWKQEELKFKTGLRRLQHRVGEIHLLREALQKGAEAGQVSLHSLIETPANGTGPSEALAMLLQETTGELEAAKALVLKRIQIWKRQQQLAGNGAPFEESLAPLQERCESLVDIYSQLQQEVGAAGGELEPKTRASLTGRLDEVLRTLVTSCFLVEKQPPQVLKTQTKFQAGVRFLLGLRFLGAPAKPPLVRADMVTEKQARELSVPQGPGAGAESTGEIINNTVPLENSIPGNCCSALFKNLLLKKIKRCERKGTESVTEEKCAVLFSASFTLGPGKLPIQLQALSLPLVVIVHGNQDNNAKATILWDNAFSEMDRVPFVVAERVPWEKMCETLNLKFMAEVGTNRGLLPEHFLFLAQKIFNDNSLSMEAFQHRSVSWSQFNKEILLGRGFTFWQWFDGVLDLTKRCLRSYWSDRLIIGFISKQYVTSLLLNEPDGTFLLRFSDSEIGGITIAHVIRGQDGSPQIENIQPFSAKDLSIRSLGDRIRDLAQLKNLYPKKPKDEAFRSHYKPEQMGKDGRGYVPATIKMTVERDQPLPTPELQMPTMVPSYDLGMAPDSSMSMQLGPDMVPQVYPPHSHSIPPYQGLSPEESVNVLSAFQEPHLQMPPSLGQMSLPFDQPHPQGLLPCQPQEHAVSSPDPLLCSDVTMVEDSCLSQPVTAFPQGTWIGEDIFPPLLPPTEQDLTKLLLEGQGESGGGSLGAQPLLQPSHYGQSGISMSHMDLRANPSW
Description: Measurement of STAT 6 Tyrosine Phosphorylation
The H292 cell (ATCC) (5×10^5 cells/0.5 ml) was inoculated into a 12 well plate (IWAKI) and cultured overnight, and then stimulation with 10 ng/ml of human IL-4 (Genzyme techne) was carried out. In the case of the evaluation of compounds, compound dilutions were added to the wells 20 minutes before the IL-4 stimulation. Also, regarding the dilution of compounds, dilution was carried out using 10% FBS-containing RPMI 1640 such that the final concentration of DMSO in which each compound was dissolved became 0.1% or less. This was washed three times with ice-cooled physiological phosphate buffer 20 minutes after the IL-4 stimulation. After the washing, 100 μl/well of a cell lysis solution (TNE buffer: 10 mM Tris-HCl pH 7.8, 1% NP-40, 0.15 M NaCl, 1 mM EDTA, 10 μg/ml aprotinin, 1 mM NaF and 1 mM Na3VO4) was added. The cell lysate was recovered, and 15 μl thereof was subjected to western blotting after SDS electrophoresis using an anti-tyrosine phosphorylated STAT 6 antibody (Cell Signaling). Whether or not the tyrosine phosphorylation band of about 110 kDa is disappeared, which is IL-4 stimulation-dependently detected, was judged. Also, uniform transference of the STAT 6 protein was confirmed using the same transfer membrane by western blotting which used an anti-STAT 6 antibody (SantaCruz).

inhibition at 0.1 µM (STAT 6 [1])	inhibition at 1 µM (STAT 6 [1])	Inh (%) 0.1 μM (STAT 6 [1])	Inh (%) 1 μM (STAT 6 [1])	inhibition of STAT 6-dependent reporter activity (activity similar to the compounds of Table 26) (STAT 6 [1])	inhibition of STAT 6 tyrosine phosphorylation (STAT 6 [2])	Compound
				good activity		NC(=O)c1cnc(Nc2ccc(N3CCOCC3)cc2)nc1NCc1c(F)cccc1Cl [Example 58]
		100%	100%		completely inhibited	CCOC(=O)CN1CCN(c2ccc(Nc3ncc(C(N)=O)c(NCc4c(F)ccc(F)c4F)n3)cc2)CC1 [Example 189]
		100%	100%		completely inhibited	NC(=O)c1cnc(Nc2ccc(N3CCN(CC(=O)O)CC3)cc2)nc1NCc1c(F)ccc(F)c1F [Example 190]
		100%	100%		completely inhibited	Cl.NC(=O)c1cnc(Nc2ccc(N3CCCOCC3)cc2)nc1NCc1c(F)ccc(F)c1F [Example 191]
		100%	100%		completely inhibited	COC1CCCN(c2ccc(Nc3ncc(C(N)=O)c(NCc4c(F)ccc(F)c4F)n3)cc2)C1.Cl.Cl (stereo not drawn) [Example 192]
		100%	100%		completely inhibited	Cl.Cl.NC(=O)CN1CCN(c2ccc(Nc3ncc(C(N)=O)c(NCc4c(F)ccc(F)c4F)n3)cc2)CC1 [Example 201]
				good activity		NC(=O)c1cnc(Nc2ccc(N3CCOCC3)c(F)c2)nc1NCc1ccccc1 [Example 239]
		97%	100%			NC(=O)c1cnc(Nc2ccc(N3CCOCC3)c(F)c2)nc1NCc1c(F)cccc1F [Example 244]
91%	100%					NC(=O)c1cnc(Nc2ccc(N3CCOCC3)cc2)nc1NC1CCCCC1 [Production Example 12, 4-cyclohexylamino-2-[(4-morpholinophenyl)amino]pyrimidine-5-carboxamide]

The next lines start with the compound.

Compound	inhibition at 0.1 µM (STAT 6 [1])	inhibition at 1 µM (STAT 6 [1])	Inh (%) 0.1 μM (STAT 6 [1])	Inh (%) 1 μM (STAT 6 [1])	inhibition of STAT 6-dependent reporter activity (activity similar to the compounds of Table 26) (STAT 6 [1])	inhibition of STAT 6 tyrosine phosphorylation (STAT 6 [2])
CNC(=O)c1cnc(NCCc2cc(Cl)c(O)c(Cl)c2)nc1Nc1cccc(C)c1 [Example 2, 2-{[2-(3,5-dichloro-4-hydroxyphenyl)ethyl]amino}-N-methyl-4-[(3-methylphenyl)amino]pyrimidine-5-carboxamide]	48%	96%				
NC(=O)c1cnc(Nc2ccc(N3CCOCC3)cc2)nc1NCc1cc(Cl)ccc1F [Example 39]			100%	100%		
CN(C)CC(=O)N1CCN(c2ccc(Nc3ncc(C(N)=O)c(NCc4ccccc4)n3)cc2)CC1.Cl.Cl [Example 148]			94%	100%		completely inhibited
CN(CC1CN(c2ccc(Nc3ncc(C(N)=O)c(NCc4ccccc4)n3)cc2)CCO1)S(C)(=O)=O.Cl (stereo not drawn) [Example 180]			91%	100%		
NC(=O)c1cnc(Nc2ccc(OC3OC(CO)C(O)C(O)C3O)cc2)nc1NCc1c(F)ccc(F)c1F (stereo not drawn) [Example 233]			25%	100%		
Cc1cccc(Nc2nc(NCCc3ccc(O)c(Br)c3)ncc2C(N)=O)c1 [Production Example 1, 2-{[2-(3-bromo-4-hydroxyphenyl)ethyl]amino}-4-[(3-methylphenyl)amino]pyrimidine-5-carboxamide]	67%	100%				
Cc1cccc(Nc2nc(Nc3ccc(CN(C)C)cc3)ncc2C(N)=O)c1 [Production Example 9, 2-({4-[(dimethylamino)methyl]phenyl}amino)-4-[(3-methylphenyl)amino]pyrimidine-5-carboxamide dihydrochloride]	33%	91%				
